Where a SMILES comes first, the peptide text is derived from it. [ ]: non-standard residue; d: D form. N(4-MeOBn)Gly = COc1ccc(CNCC(=O)O)cc1; NMeY = CN[C@@H](Cc1ccc(O)cc1)C(=O)O; Gly(N-CH2CH2OH) = O=C(O)CNCCO; NMeK = CN[C@@H](CCCCN)C(=O)O; Nlys = NCCCCNCC(=O)O
How the values were obtained:
Type in all cases: biochemical
[1] = target: T1, human 20S proteasome, ChT-L peptidase; experiment: Chymotrypsin-like (ChT-L) activity of h20S probed with Suc-LLVY-AMC
T1 construct: human proteasome isolated from erythrocytes; from tissue; host or cells: human erythrocytes
Experimental: (§1) To assess the influence of substitutions increasing proteolytic stability on the modulators’ capacity to stimulate chymotrypsin-like, trypsin-like, and caspase-like activity of h20S, we used classic fluorogenic substrates: Suc-LLVY-AMC, Boc-LRR-AMC, and Z-LLE-AMC, respectively.
(§2) The effect of all synthesized peptidomimetics on the catalytic activity of the proteasome was tested using a human proteasome isolated from erythrocytes. Suc-LLVY-AMC, Boc-LRR-AMC, and Z-LLE-AMC fluorogenic substrates (Bachem, Bubendorf, Switzerland) were used for assessment of the chymotrypsin-, trypsin-, and caspase-like activities, respectively. A homemade FRET-type substrate Dabcyl-EDANS (Lys(Dabcyl)-[…]EDANS)-Gly)[26] was used as an additional probe. Stock solutions of the substrates and tested peptidomimetics were prepared in dimethyl sulfoxide (DMSO), ensuring that the final concentration of DMSO in all samples remained consistent at 2%. The small fluorogenic substrates were used at a final concentration of 100 μM, while Dabcyl-EDANS was prepared at a final concentration of 15 μM. […] Activity tests were conducted in 96-well plates using 50 mM Tris/HCl, pH 8.0, as an assay buffer. The final concentration of h20S proteasome was adjusted to 0.002 mg/mL (2.8 nM). The fluorescence of released aminomethylcoumarin (AMC) was monitored at 460 nm (λex was 380 nm), while the hydrolysis of Dabcyl-EDANS was detected by measuring emission at 493 nm (λex was set at 335 nm). Fluorescence measurements were taken continuously every 2 min over a 60 min period at 37 °C using a Tecan Infinite M200Pro spectrofluorometer (Tecan Trading AG, Männedorf, Switzerland). All activity assays were performed in at least three independent replicates. The relative activity was calculated in relation to the catalytic activity of the vehicle (DMSO)-treated latent proteasome, which was regarded as 100%. Statistical analysis was performed using the one-way ANOVA followed by Tukey’s post-hoc test. P-value <0.05 was considered statistically significant.

[2] = tested on: T2, human 20S proteasome, C-L peptidase; experiment: Caspase-like (C-L) activity of h20S probed with Z-LLE-AMC; settings: 100 μM Z-LLE-AMC
T2 construct: human proteasome isolated from erythrocytes; from tissue; host or cells: human erythrocytes
Description: (§3) To assess the influence of substitutions increasing proteolytic stability on the modulators’ capacity to stimulate chymotrypsin-like, trypsin-like, and caspase-like activity of h20S, we used classic fluorogenic substrates: Suc-LLVY-AMC, Boc-LRR-AMC, and Z-LLE-AMC, respectively. To confirm the observed stimulating capacity, we also conducted assays using a FRET-type reporter peptide with a sequence consisting of 11 residues (Lys(Dabcyl)-[…]EDANS)-Gly).[27] As we checked, the activated 20S hydrolyzed this substrate after more than one residue (Lys, Gly, and Glu), which makes it a probe better reflecting the concerted action of the proteasome’s three peptidases. […] The discrepancy in the level of activation was mainly due to the greater sensitivity of the FRET substrate, as it is not digested, unlike the AMC-based probes, by the latent proteasome, which results in greater differences in fluorescence relative to the controls. […] The ability to affect individual peptidases of the proteasome in different ways is most likely related to the allosteric mechanism of action of the modulators. Binding at a site distant from the catalytic compartment may result in greater diversity in the pathways by which the signal reaches active sites and differential effects of that signal on each peptidase.
(§4) The effect of all synthesized peptidomimetics on the catalytic activity of the proteasome was tested using a human proteasome isolated from erythrocytes. Suc-LLVY-AMC, Boc-LRR-AMC, and Z-LLE-AMC fluorogenic substrates (Bachem, Bubendorf, Switzerland) were used for assessment of the chymotrypsin-, trypsin-, and caspase-like activities, respectively. A homemade FRET-type substrate Dabcyl-EDANS (Lys(Dabcyl)-[…]EDANS)-Gly)[26] was used as an additional probe. Stock solutions of the substrates and tested peptidomimetics were prepared in dimethyl sulfoxide (DMSO), ensuring that the final concentration of DMSO in all samples remained consistent at 2%. The small fluorogenic substrates were used at a final concentration of 100 μM, while Dabcyl-EDANS was prepared at a final concentration of 15 μM. Modulators were tested in concentrations ranging from 1.0 to 50 μM, with compounds containing TAT or 6R sequences tested at lower concentrations ranging from 0.5 to 10 μM. Activity tests were conducted in 96-well plates using 50 mM Tris/HCl, pH 8.0, as an assay buffer. The final concentration of h20S proteasome was adjusted to 0.002 mg/mL (2.8 nM). The fluorescence of released aminomethylcoumarin (AMC) was monitored at 460 nm (λex was 380 nm), while the hydrolysis of Dabcyl-EDANS was detected by measuring emission at 493 nm (λex was set at 335 nm). Fluorescence measurements were taken continuously every 2 min over a 60 min period at 37 °C using a Tecan Infinite M200Pro spectrofluorometer (Tecan Trading AG, Männedorf, Switzerland). All activity assays were performed in at least three independent replicates. The relative activity was calculated in relation to the catalytic activity of the vehicle (DMSO)-treated latent proteasome, which was regarded as 100%. Statistical analysis was performed using the one-way ANOVA followed by Tukey’s post-hoc test. P-value <0.05 was considered statistically significant.

[3] = tested on: T3, human 20S proteasome, T-L peptidase; experiment: Trypsin-like (T-L) activity of h20S probed with Boc-LRR-AMC; settings: 100 μM Boc-LRR-AMC
T3 construct: human proteasome isolated from erythrocytes; from tissue; host or cells: human erythrocytes
Experimental: as §1, §2

[4] = tested on: T4, human 20S proteasome; experiment: h20S proteasome activity probed with FRET-type Dabcyl-EDANS substrate; settings: for h20S stimulating capacity, Dabcyl-EDANS: 1.0-50 μM modulator
T4 construct: human proteasome isolated from erythrocytes; from tissue; host or cells: human erythrocytes
Description: as §3, §4

[5] = 100 μM Suc-LLVY-AMC, whole concentration range

ChT-L stimulating capacity, Suc-LLVY-AMC [1, 5] | C-L stimulating capacity, Z-LLE-AMC [2] | T-L stimulating capacity, Boc-LRR-AMC [3] | h20S stimulating capacity, Dabcyl-EDANS ([4]; 15 μM Dabcyl-EDANS) | ChT-L stimulating capacity, Suc-LLVY-AMC ([1]; at higher concentrations) | stimulation of h20S activity, Suc-LLVY-AMC probe ([1]; 100 μM Suc-LLVY-AMC, level reached vs latent proteasome) | stimulation of h20S activity, Dabcyl-EDANS probe ([4]; 15 μM Dabcyl-EDANS, level reached vs latent proteasome) | h20S stimulating potency, Dabcyl-EDANS ([4]; at the lowest concentrations) | ChT-L stimulating capacity, Suc-LLVY-AMC ([1]; at 1 μM concentration) | Compound
least effective stimulants | weakest activators | weakest activators | least effective stimulants |  |  |  |  |  | COc1ccc(CN(CC(=O)N[C@@H](CCCNC(=N)N)C(=O)N[C@@H](CCCNC(=N)N)C(=O)N[C@@H](Cc2ccc(O)cc2)C(=O)N[C@@H](Cc2ccc(O)cc2)C(=O)N[C@@H](CO)C(=O)O)C(=O)[C@H](CC(=O)O)NC(=O)[C@H](CCCCN)NC(=O)[C@H](CO)NC(=O)CNC(=O)[C@@H](NC(=O)[C@H](Cc2ccccc2)NC(=O)[C@H](Cc2ccc(O)cc2)NC(=O)[C@@H](N)CCCCN)[C@@H](C)O)cc1 [2e] (H-KYFTGSKD[N(4-MeOBn)Gly]RRYYS-OH)
most effective h20S stimulators |  |  | most effective h20S stimulators |  |  |  |  |  | H-KYFTGSKDYRRYYS-OH [compound 2]
 | comparable stimulatory capacity | comparable stimulatory capacity | comparable stimulatory capacity | as inefficient as 2e |  |  |  | same moderate efficiency | COc1ccc(CN(CC(=O)N[C@@H](Cc2ccccc2)C(=O)N[C@H](C(=O)NCC(=O)N[C@@H](CO)C(=O)N[C@@H](CCCCN)C(=O)N[C@@H](CC(=O)O)C(=O)N[C@@H](Cc2ccc(O)cc2)C(=O)N[C@@H](CCCNC(=N)N)C(=O)N[C@@H](CCCNC(=N)N)C(=O)N[C@@H](Cc2ccc(O)cc2)C(=O)N[C@@H](Cc2ccc(O)cc2)C(=O)N[C@@H](CO)C(=O)O)[C@@H](C)O)C(=O)[C@@H](N)CCCCN)cc1 [2d] (H-K[N(4-MeOBn)Gly]FTGSKDYRRYYS-OH)

Further lines, the compound ahead of its results:

Compound | ChT-L stimulating capacity, Suc-LLVY-AMC [1, 5] | C-L stimulating capacity, Z-LLE-AMC [2] | T-L stimulating capacity, Boc-LRR-AMC [3] | h20S stimulating capacity, Dabcyl-EDANS ([4]; 15 μM Dabcyl-EDANS) | ChT-L stimulating capacity, Suc-LLVY-AMC ([1]; at higher concentrations) | stimulation of h20S activity, Suc-LLVY-AMC probe ([1]; 100 μM Suc-LLVY-AMC, level reached vs latent proteasome) | stimulation of h20S activity, Dabcyl-EDANS probe ([4]; 15 μM Dabcyl-EDANS, level reached vs latent proteasome) | h20S stimulating potency, Dabcyl-EDANS ([4]; at the lowest concentrations) | ChT-L stimulating capacity, Suc-LLVY-AMC ([1]; at 1 μM concentration)
RKKRRQRRR [tat, fragment of the HIV-1 Tat 48–58 peptide used as cell-penetrating peptide, tested alone as control, reference compound] | proteasome inhibition |  |  |  |  |  |  |  | 
C[C@@H](O)[C@H](NC(=O)[C@H](Cc1ccccc1)NC(=O)[C@H](Cc1ccc(O)cc1)NC(=O)[C@@H](N)CCCCN)C(=O)NCC(=O)N[C@@H](CO)C(=O)N(CCCCN)CC(=O)N[C@@H](CC(=O)O)C(=O)N[C@@H](Cc1ccc(O)cc1)C(=O)N[C@@H](CCCNC(=N)N)C(=O)N[C@@H](CCCNC(=N)N)C(=O)N[C@@H](Cc1ccc(O)cc1)C(=O)N[C@@H](Cc1ccc(O)cc1)C(=O)N[C@@H](CO)C(=O)O [2b] (H-KYFTGS[Nlys]DYRRYYS-OH) |  | comparable stimulatory capacity | comparable stimulatory capacity | comparable stimulatory capacity | efficiency comparable to 2 and 2a |  |  |  | 
CN[C@@H](CCCCN)C(=O)N(C)[C@@H](Cc1ccc(O)cc1)C(=O)N[C@@H](Cc1ccccc1)C(=O)N[C@H](C(=O)NCC(=O)N[C@@H](CO)C(=O)N[C@@H](CCCCN)C(=O)N[C@@H](CC(=O)O)C(=O)N[C@@H](Cc1c[nH]c2ccccc12)C(=O)N[C@@H](CCCNC(=N)N)C(=O)N[C@@H](CO)C(=O)N[C@@H](Cc1ccc(O)cc1)C(=O)N[C@@H](Cc1ccc(O)cc1)C(=O)N[C@@H](CO)C(=O)O)[C@@H](C)O [1e] (H-[NMeK][NMeY]FTGSKDWRSYYS-OH) |  |  |  | did not lose their ability to effectively stimulate h20S |  | 8 fold | 12 fold | even more potent than 1 | 
C[C@@H](O)[C@H](NC(=O)[C@H](Cc1ccccc1)NC(=O)[C@H](Cc1ccc(O)cc1)NC(=O)[C@@H](N)CCCCN)C(=O)NCC(=O)N[C@@H](CO)C(=O)N[C@@H](CCCCN)C(=O)N[C@@H](CC(=O)O)C(=O)N[C@@H](Cc1c[nH]c2ccccc12)C(=O)N[C@@H](CCCNC(=N)N)C(=O)N(CCO)CC(=O)N[C@@H](Cc1ccc(O)cc1)C(=O)N[C@@H](Cc1ccc(O)cc1)C(=O)N[C@@H](CO)C(=O)O [1b] (H-KYFTGSKDWR[Gly(N-CH2CH2OH)]YYS-OH) | lower capacity of activating h20S |  |  | less strongly than 1 |  |  |  |  | 
C[C@@H](O)[C@H](NC(=O)[C@H](Cc1ccccc1)NC(=O)[C@H](Cc1ccc(O)cc1)NC(=O)CNCCCCN)C(=O)NCC(=O)N[C@@H](CO)C(=O)N(CCCCN)CC(=O)N[C@@H](CC(=O)O)C(=O)N[C@@H](Cc1ccc(O)cc1)C(=O)N[C@@H](CCCNC(=N)N)C(=O)N[C@@H](CCCNC(=N)N)C(=O)N[C@@H](Cc1ccc(O)cc1)C(=O)N[C@@H](Cc1ccc(O)cc1)C(=O)N[C@@H](CO)C(=O)O [2c] (H-[Nlys]YFTGS[Nlys]DYRRYYS-OH) |  | comparable stimulatory capacity | comparable stimulatory capacity | comparable stimulatory capacity | efficiency comparable to 2 and 2a |  |  |  | same moderate efficiency
